Source: patent US20240376097A1, “BCL-2 Inhibitor” (BeiGene Ltd., priority 2020, published 2024)

Experiments:
[1] = test system: BCL-2 G101V knock-in cell line H96 (derive from RS4;11); test: Bcl 2-G101V Knock-In RS4;11 Cell Proliferation Assay; type: cell-based; conditions: Homo sapiens, RS4;11 Bcl-2 G101V knock-in clone H96, 48 hrs, CellTiter-GLO, read-out: Cellular proliferation assay (IC50, nM) RS4
In short: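 H96, a CRISPR-generated RS4;11 clone carrying BCL2-G101V knock-in (WES/RNA-seq validated), seeded 50,000 per well and exposed 48 h at 37 °C to 10-point dilutions topping at 1 or 10 μM. Viability by CellTiter-Glo luminescence; mean IC50.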

[2] = target: Recombinant human Bcl-2 protein (Homo sapiens (Human), UniProt P10415); test: Bcl-2 TR-FRET Assay; type: binding; conditions: Bcl-2 wild type, TR-FRET; read-out: Biochemical assay (IC50, nM) Bcl-2 WT
In short: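 0.05 nM recombinant Bcl-2 preincubated 0.5 h at room temperature with 10-point compound dilutions (top final 1, 0.1, 0.02 or 0.01 uM) in pH 7.5 phosphate buffer. FITC-Bak peptide (0.5 nM) and anti-6His Tb cryptate then added for 1 h. TR-FRET read; IC50 from four-parameter logistic fit.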

[3] = target: recombinant human Bcl-2-G101V protein (Homo sapiens (Human), UniProt P10415, G101V); test: Bcl-2-G101V TR-FRET Assay; type: binding; conditions: Bcl-2 G101V mutant, TR-FRET; read-out: Biochemical assay (IC50, nM) Bcl-2 G101V
In short: (§1)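 Measures how compounds block Bcl-2-G101V engaging its ligand, by TR-FRET with 337 nm excitation and a 490/520 nm emission ratio; dose-response data give IC50 via a four-parameter logistic model.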

[4] = test system: recombinant human Bcl-2-G101V protein; test: Bcl-2-G101V TR-FRET Assay; type: binding; conditions: ratio of biochemical IC50 Bcl-2 G101V / Bcl-2 WT
In short: as §1

[5] = test system: RS4;11 (BCL-2 dependent acute lymphoblastic leukemia cell line); test: RS4;11 Cell Proliferation Assay; type: cell-based; conditions: Homo sapiens, RS4-11, RS4;11 cells, read-out: Cellular proliferation assay (IC50, nM) RS4
In short: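 RS4;11 cells, 50,000 per well in RPMI-1640 with 10% FBS, treated 48 h at 37 °C with a 10-point dilution series topping at 1 μM. Viability read by CellTiter-Glo ATP luminescence; mean IC50 reported.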

SMILES | IC50 [1] | IC50 [2] | IC50 [3] | Ratio of Bcl-2 G101V/WT [4] | IC50 [5]
CC(C)c1ccccc1C1CN(Cc2ccc3c(c2)OC(F)(F)O3)CCN1C1CC2(CCN(c3ccc(C(=O)NS(=O)(=O)c4ccc(NC[C@H]5CC[C@](C)(O)CC5)c([N+](=O)[O-])c4)c(Oc4cnc5[nH]ccc5c4)c3)CC2)C1 (some centres unmarked) [Example 168, 2-((1H-pyrrolo[2,3-b]pyridin-5-yl)oxy)-4-(2-(4-((2,2-difluorobenzo[d] [1,3]dioxol-5-yl)methyl)-2-(2-isopropylphenyl)piperazin-1-yl)-7-azaspiro[3.5]nonan-7-yl)-N-((4-((((1r,4r)-4-hydroxy-4-methylcyclohexyl)methyl)amino)-3-nitrophenyl)sulfonyl)benzamide] | 1.68 nM | 0.79 nM | 4.6 nM | 5.9 | 0.48 nM
COc1cc(CN2CCN(C3CC4(CCN(c5ccc(C(=O)NS(=O)(=O)c6ccc(NC[C@H]7CC[C@](C)(O)CC7)c([N+](=O)[O-])c6)c(Oc6cnc7[nH]ccc7c6)c5)CC4)C3)[C@H](c3ccccc3C(C)C)C2)ccc1C(F)(F)F [Example 277, 2-((1H-pyrrolo[2,3-b]pyridin-5-yl)oxy)-N-((4-((((1r,4r)-4-hydroxy-4-methylcyclohexyl)methyl)amino)-3-nitrophenyl)sulfonyl)-4-(2-((R)-2-(2-isopropylphenyl)-4-(3-methoxy-4-(trifluoromethyl)benzyl)piperazin-1-yl)-7azaspiro [3.5]nonan-7-yl)benzamide] | 1.9 nM | 1.4 nM | 3.2 nM | 2.2 | 0.22 nM
COc1ccc(CN(C)C2CCN(C3CC4(CCN(c5ccc(C(=O)NS(=O)(=O)c6ccc(NC[C@H]7CC[C@](C)(O)CC7)c([N+](=O)[O-])c6)c(Oc6cnc7[nH]ccc7c6)c5)CC4)C3)C(c3ccccc3C3CC3)C2)cc1 (some centres unmarked) [Example 105, 2-((1H-pyrrolo[2,3-b]pyridin-5-yl)oxy)-4-(2-(2-(2-cyclopropylphenyl)-4-((4-methoxybenzyl)(methyl)amino)piperidin-1-yl)-7-azaspiro[3.5]nonan-7-yl)-N-((4-((((1r,4r)-4-hydroxy-4-methylcyclohexyl)methyl)amino)-3-nitrophenyl)sulfonyl)benzamide] | 16.6 nM | 0.1 nM | 0.25 nM | 2.5 | 2.12 nM
COc1cc(CN2CCN(C3CC4(CCN(c5ccc(C(=O)NS(=O)(=O)c6ccc(NC[C@H]7CC[C@](C)(O)CC7)c([N+](=O)[O-])c6)c(Oc6cnc7[nH]cc(Cl)c7c6)c5)CC4)C3)[C@H](c3ccccc3C(C)C)C2)ccc1C1CC1 [Example 252, 2-((3-chloro-1H-pyrrolo[2,3-b]pyridin-5-yl)oxy)-4-(2-((R)-4-(4-cyclopropyl-3-methoxybenzyl)-2-(2-isopropylphenyl)piperazin-1-yl)-7-azaspiro[3.5]nonan-7-yl)-N-((4-((((1r,4r)-4-hydroxy-4-methylcyclohexyl)methyl)amino)-3-nitrophenyl)sulfonyl)benzamide] | 2.6 nM | 1.2 nM | 3.5 nM | 2.8 | 0.26 nM
COc1ccc(CN2CCN(C3CC4(CCN(c5ccc(C(=O)NS(=O)(=O)c6ccc(NC[C@H]7CC[C@](C)(O)CC7)c([N+](=O)[O-])c6)c(Oc6cnc7[nH]ccc7c6)c5)CC4)C3)C(c3ccccc3C(C)C)C2)cc1C1CC1 (some centres unmarked) [Example 136, 2-((1H-pyrrolo[2,3-b]pyridin-5-yl)oxy)-4-(2-(4-(3-cyclopropyl-4-methoxybenzyl)-2-(2-isopropylphenyl)piperazin-1-yl)-7-azaspiro[3.5]nonan-7-yl)-N-((4-((((1r,4r)-4-hydroxy-4-methylcyclohexyl)methyl)amino)-3-nitrophenyl)sulfonyl)benzamide] | 4.6 nM | 0.75 nM | 2.9 nM | 3.8 | 0.51 nM
CC(C)c1ccccc1C1CN(Cc2cccc3ccoc23)CCN1C1CC2(CCN(c3ccc(C(=O)NS(=O)(=O)c4ccc(NC[C@H]5CC[C@](C)(O)CC5)c([N+](=O)[O-])c4)c(Oc4cnc5[nH]ccc5c4)c3)CC2)C1 (some centres unmarked) [Example 137, 2-((1H-pyrrolo[2,3-b]pyridin-5-yl)oxy)-4-(2-(4-(benzofuran-7-ylmethyl)-2-(2-isopropylphenyl)piperazin-1-yl)-7-azaspiro[3.5]nonan-7-yl)-N-((4-((((1r,4r)-4-hydroxy-4-methylcyclohexyl)methyl)amino)-3-nitrophenyl)sulfonyl)benzamide] | 9.6 nM | 0.62 nM | 3.2 nM | 5.1 | 0.89 nM
COC12CC3CC(CC(CN4CCN(C5CC6(C5)CN(c5ccc(C(=O)NS(=O)(=O)c7ccc(NC[C@H]8CC[C@](C)(O)CC8)c([N+](=O)[O-])c7)c(Oc7cnc8[nH]cc(F)c8c7)c5)C6)[C@H](c5ccccc5C(C)C)C4)(C3)C1)C2 [Example 352] | 4.56 nM | 0.52 nM | 2.2 nM | 4.2 | 0.45 nM
COc1cc(CN2CCN(C3CC4(C3)CN(c3ccc(C(=O)NS(=O)(=O)c5ccc(NC[C@H]6CC[C@](C)(O)CC6)c([N+](=O)[O-])c5)c(Oc5cnc6[nH]ccc6c5)c3)C4)[C@H](c3ccccc3C(C)C)C2)cc2c1OC(C)(C)C=C2 [Example 329, 2-((1H-pyrrolo[2,3-b]pyridin-5-yl)oxy)-N-((4-((((1r,4r)-4-hydroxy-4-methylcyclohexyl)methyl)amino)-3-nitrophenyl)sulfonyl)-4-(6-((R)-2-(2-isopropylphenyl)-4-((8-methoxy-2,2-dimethyl-2H-chromen-6-yl)methyl)piperazin-1-yl)-2-azaspiro[3.3]heptan-2-yl) benzamide] | 1.3 nM | 0.15 nM | 0.47 nM | 3.1 | 0.25 nM
COc1cc(CN2CCN(C3CC4(CCN(c5ccc(C(=O)NS(=O)(=O)c6ccc(NC[C@H]7CC[C@](C)(O)CC7)c([N+](=O)[O-])c6)c(Oc6cnc7[nH]ccc7c6)c5)CC4)C3)[C@H](c3ccccc3C(C)C)C2)ccc1F [Example 121a, 2-((1H-pyrrolo[2,3-b]pyridin-5-yl)oxy)-4-(2-((R)-4-(4-fluoro-3-methoxybenzyl)-2-(2-isopropylphenyl)piperazin-1-yl)-7-azaspiro[3.5]nonan-7-yl)-N-((4-((((1r,4r)-4-hydroxy-4-methylcyclohexyl)methyl)amino)-3-nitrophenyl)sulfonyl)benzamide] | 0.603 nM | 0.12 nM | 0.4 nM | 3.4 | 0.153 nM
COc1cc(CN2CCN(C3CC4(C3)CN(c3ccc(C(=O)NS(=O)(=O)c5ccc(NC[C@H]6CC[C@](C)(O)CC6)c([N+](=O)[O-])c5)c(Oc5cnc6[nH]ccc6c5)c3)C4)[C@H](c3ccccc3C(C)C)C2)ccc1C(F)(F)F [Example 290, 2-((1H-pyrrolo[2,3-b]pyridin-5-yl)oxy)-N-((4-((((1r,4r)-4-hydroxy-4-methylcyclohexyl)methyl)amino)-3-nitrophenyl)sulfonyl)-4-(6-((R)-2-(2-isopropylphenyl)-4-(3-methoxy-4-(trifluoromethyl)benzyl)piperazin-1-yl)-2-azaspiro [3.3]heptan-2-yl)benzamide] | 1.5 nM | 0.9 nM | 2.2 nM | 2.5 | 0.2 nM
